Type in all cases: biochemical
In experiment [1] the target is T1, Gox1615 (Gluconobacter oxydans, UniProt Q5FQJ0).
T1 sequence (Q5FQJ0 1-332): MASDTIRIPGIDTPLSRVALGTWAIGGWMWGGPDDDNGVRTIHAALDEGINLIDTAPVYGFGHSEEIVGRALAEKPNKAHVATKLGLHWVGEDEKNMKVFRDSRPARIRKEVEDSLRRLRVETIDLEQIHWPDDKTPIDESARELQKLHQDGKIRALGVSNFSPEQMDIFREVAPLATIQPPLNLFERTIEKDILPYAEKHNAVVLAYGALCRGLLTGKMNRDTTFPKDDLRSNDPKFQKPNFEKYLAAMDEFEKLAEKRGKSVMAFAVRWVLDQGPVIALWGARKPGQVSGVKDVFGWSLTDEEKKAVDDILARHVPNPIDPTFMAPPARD
Nature of the experiment: Enzyme kinetics (Lineweaver-Burk plots), Gox1615. The conditions noted are these: NADPH-dependent reduction. The method, then: (§1) Determination of pH and temperature optima and enzyme kinetics: The optimum pH for enzyme activities was determined by a modified method of Salusjärvi, T. et al., Appl. Microbiol. Biotechnol. 65:306-314 (2004) using the following buffer system (50 mM final concentration each): sodium acetate pH 4.5 - 6.5, potassium phosphate pH 6.5 - 8.0, Tris-HCl pH 8.0 - 10. Temperature optima for the biocatalysts were determined under standard reaction conditions at temperatures ranging from 20 - 80 °C. The Michaelis constant (Km) for the proteins was determined from purified enzyme by Lineweaver-Burk plots. Assays were performed at optimum pH for each enzyme and at 30 °C using the top substrate and a targeted substrate. The Km for each substrate was calculated using concentrations of 0.0025 to 10 mM, and the Km NAD(P)H and NAD(P) was calculated using concentrations of 0.01 to 0.5 mM
(§2) The Michaelis constants were determined from purified enzyme by Lineweaver-Burk plots. The Km and Vmax values for the substrates were calculated using concentrations of 0.025 to 10 mM, The optimal pH values and temperatures for enzyme activities are also shown in Tab. 11. Tab. 11: Summary of kinetic parameters

In experiment [2] the target is T2, Gox0644 (Gluconobacter oxydans, UniProt Q5FT75). The experiment can be described thus: Enzyme kinetics (Lineweaver-Burk plots), Gox0644. The conditions noted are these: NADPH-dependent reduction. The method, then: as §1, §2
Experiment [3] concerns the target T2, Gox0644. Nature of the experiment: Gox0644 acetaldehyde tolerance test. From the text:
3.1. […] By coupling two coenzyme-dependent enzyme reactions, NADPH can be continuously regenerated. […] For this purpose, a combined enzymatic reaction was used between the NADPH-dependent oxidoreductases that form α-hydroxy carbonyl compounds and the aldehyde dehydrogenase GOX1122 that produces the reduced cofactor in the course of acetaldehyde oxidation. […] The products derived from the α-diketone and α-ketoaldehyde substrate reaction were generated according to the cofactor regeneration protocol. […] In both the reactions with phenylglyoxal and 2,3 pentanedione, Gox0644 activity remained similar to the control reaction consisting of a reaction without acetaldehyde (Tab. 12/13). […] In the reaction with 2,3 pentanedione there was a slight decrease of about 20% from the control, however, the activity levels were still very high at 66.8 U/mg. […] Table 12: Gox0644 acetaldehyde tolerance tests with phenylglyoxal

Experiment [4] deals with T1, Gox1615. Nature of the experiment: Regioselectivity of bioconversion, product determined by NMR, Gox1615. The conditions noted are these: bioconversion with Gox1122 cofactor regeneration, NMR analysis. The text has this: Cofactor regeneration: A prerequisite for the production of α-hydroxycarbonyl compounds is the regeneration of the expensive coenzymes and the stability of the protein catalysts. By coupling two coenzyme-dependent enzyme reactions, NADPH can be continuously regenerated. […] For this purpose, we used a combined enzymatic reaction between the NADPH-dependent oxidoreductases that form α-hydroxycarbonyl compounds and the aldehyde dehydrogenase GOX1122 (see Schweiger, P. et al., J. Mol. Microbiol. Biotechnol. 13:147-155 (2007)) that produces the reduced cofactor in the course of acetaldehyde oxidation. […] The biotransformation was performed in a batch process (total volume 2.5 ml 40 mM potassium phosphate buffer pH 7). 30 µg of purified Gox1122 and of NADPH-dependent oxidoreductases and 50 µM NADPH were added. The substrate concentration in the beginning was 20 mM 2,3-pentanedione and 20 mM acetaldehyde. Fresh substrates were added every 60 min (20 mM each).
NMR: The 2.5 ml bioconversion was extracted with two times equal volume of d-chloroform. ^1H and ^13C NMR spectra were recorded on a DPX 300 Spectrometer (300 MHz) and referenced to the CDCl3 internal standard. Chemical samples analyzed with Bruker NMR Suite 2.5 software constructed final product structures.
2.7 Regioselectivity of GOX0644 and GOX1615: Tab. […] Tab. 10: Summary of Regioselectivity
The reduced NADPH was oxidized in the reduction of phenylglyoxal to 2-hydroxy-2-phenyl-acetaldehyde by protein Gox1615. 5 ml bioconversions for determining regioselectivity were set up with 2 mg of proteins Gox1615 and Gox1122, 40 mM potassium phosphate buffer, pH 7.0, 50 µM NADPH. Substrates (20 mM phenylglyoxal and acetaldehyde) were added every 30 min. The reaction was followed for 3 h to produce quantities between 40-60 mg of product (2-phenyl-2-hydroxyaldehyde).

On to `CCCC(=O)C(C)=O` [2,3-hexanedione], for which, at Gox1615 [1], the Vmax stood at 6 U/mg protein.
For `CCC(=O)C(C)=O` [2,3-pentanedione], the Vmax on Gox0644 [2] was found to be 79 U/mg protein. On Gox0644 [3] (Gox0644 with 2,3 pentanedione, high concentration of acetaldehyde), the activity levels was 66.8 U/mg. Besides, the Gox0644 activity at Gox0644 [3] (substrate 2,3-pentanedione, Control (without acetaldehyde)) came to 87.6 U/mg; on Gox0644 [3] (substrate 2,3-pentanedione, acetaldehyde 10mM) it was 90.5 U/mg; at Gox0644 [3] (substrate 2,3-pentanedione, acetaldehyde 30mM), 79.3 U/mg; at Gox0644 [3] (substrate 2,3-pentanedione, acetaldehyde 50mM), 66.8 U/mg. Further, the “Product (regioselective reduction)” value at Gox1615 [4] is reported as 2-hdrox-pentane-3-one.
As for `CC(=O)C=O` [methylglyoxal], at Gox1615 [1], the Vmax amounted to 22 U/mg protein.
Take `O=CC(=O)c1ccccc1` [phenylglyoxal]: at Gox0644 [2], the Vmax is 93 U/mg protein. The Gox0644 activity was determined as 38.5 U/mg at Gox0644 [3] (substrate phenylglyoxal, Control (without acetaldehyde)); 29.6 U/mg at Gox0644 [3] (substrate phenylglyoxal, acetaldehyde 10mM); 37.1 U/mg at Gox0644 [3] (substrate phenylglyoxal, acetaldehyde 30mM); 39.3 U/mg on Gox0644 [3] (substrate phenylglyoxal, acetaldehyde 50mM); 31.2 U/mg on Gox0644 [3] (substrate phenylglyoxal, acetaldehyde 100mM). Besides, the “Product (regioselective reduction)” value on Gox1615 [4] is listed as 2-hydroxy-2-phenyl-acetaldehyde; at Gox1615 [4] (listed as Phenylglyoxal) it was 2-hydroxy-2-phenylacetaldehyde.

Values taken from patent publication EP2119770B1, “Production of alpha-oxyfunctionalized carbonyl compounds” (priority 2008, dated 2009).
